Data published in the kinase profiling compilation of Christmann-Franck et al. (2016).

How the values were obtained:
Experiment in all cases: KINOMEscan competition binding
Settings in all cases: compound 10.0 µM
[1] = molecular target: AKT1 (human) (UniProt P31749)
[2] = molecular target: AKT3 (human) (UniProt Q9Y243)
[3] = molecular target: CDC42BPA (human) (UniProt Q5VT25)
[4] = molecular target: CDC42BPG (human) (UniProt Q6DT37)
[5] = molecular target: CDK11B (human) (UniProt P21127)
[6] = molecular target: CDK14 (human) (UniProt O94921)
[7] = molecular target: CSF1R (human) (UniProt P07333)
[8] = molecular target: DYRK1B (human) (UniProt Q9Y463)
[9] = molecular target: EPHA8 (human) (UniProt P29322)
[10] = test system: FLT3 (human), P36888 [R834Q]
[11] = molecular target: LYN (human) (UniProt P07948)
Sequence of LYN (human) (P07948 whole entry, looked up): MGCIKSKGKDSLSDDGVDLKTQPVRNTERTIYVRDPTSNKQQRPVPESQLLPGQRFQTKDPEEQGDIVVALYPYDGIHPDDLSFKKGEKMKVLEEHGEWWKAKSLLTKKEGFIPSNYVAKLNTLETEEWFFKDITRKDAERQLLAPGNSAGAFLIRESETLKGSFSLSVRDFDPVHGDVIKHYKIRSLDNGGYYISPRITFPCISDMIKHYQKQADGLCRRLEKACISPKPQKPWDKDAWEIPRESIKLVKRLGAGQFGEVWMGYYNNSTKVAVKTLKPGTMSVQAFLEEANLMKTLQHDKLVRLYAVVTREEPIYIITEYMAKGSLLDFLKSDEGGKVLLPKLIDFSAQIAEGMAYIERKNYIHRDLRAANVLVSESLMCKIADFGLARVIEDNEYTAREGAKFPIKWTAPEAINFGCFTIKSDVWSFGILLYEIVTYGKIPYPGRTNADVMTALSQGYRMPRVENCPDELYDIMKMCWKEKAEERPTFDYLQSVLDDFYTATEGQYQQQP

[12] = molecular target: MAP2K2 (human) (UniProt P36507)
[13] = molecular target: MAP2K3 (human) (UniProt P46734)
Sequence of MAP2K3 (human) (P46734 whole entry, looked up): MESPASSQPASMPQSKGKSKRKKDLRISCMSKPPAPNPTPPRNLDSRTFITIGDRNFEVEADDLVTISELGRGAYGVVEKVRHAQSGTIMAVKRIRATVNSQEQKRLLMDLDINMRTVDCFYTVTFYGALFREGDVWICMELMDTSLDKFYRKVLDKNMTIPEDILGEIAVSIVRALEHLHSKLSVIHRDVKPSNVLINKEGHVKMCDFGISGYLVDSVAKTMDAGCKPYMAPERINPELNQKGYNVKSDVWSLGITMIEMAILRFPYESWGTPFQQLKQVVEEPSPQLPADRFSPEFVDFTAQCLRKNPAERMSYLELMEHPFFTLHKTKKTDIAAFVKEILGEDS

[14] = molecular target: MAP2K4 (human) (UniProt P45985)
[15] = molecular target: MAP4K3 (human) (UniProt Q8IVH8)
[16] = molecular target: MAPK1 (human) (UniProt P28482)
[17] = molecular target: MAPK10 (human) (UniProt P53779)
[18] = molecular target: MAPK15 (human) (UniProt Q8TD08)
Sequence of MAPK15 (human) (Q8TD08 whole entry, looked up): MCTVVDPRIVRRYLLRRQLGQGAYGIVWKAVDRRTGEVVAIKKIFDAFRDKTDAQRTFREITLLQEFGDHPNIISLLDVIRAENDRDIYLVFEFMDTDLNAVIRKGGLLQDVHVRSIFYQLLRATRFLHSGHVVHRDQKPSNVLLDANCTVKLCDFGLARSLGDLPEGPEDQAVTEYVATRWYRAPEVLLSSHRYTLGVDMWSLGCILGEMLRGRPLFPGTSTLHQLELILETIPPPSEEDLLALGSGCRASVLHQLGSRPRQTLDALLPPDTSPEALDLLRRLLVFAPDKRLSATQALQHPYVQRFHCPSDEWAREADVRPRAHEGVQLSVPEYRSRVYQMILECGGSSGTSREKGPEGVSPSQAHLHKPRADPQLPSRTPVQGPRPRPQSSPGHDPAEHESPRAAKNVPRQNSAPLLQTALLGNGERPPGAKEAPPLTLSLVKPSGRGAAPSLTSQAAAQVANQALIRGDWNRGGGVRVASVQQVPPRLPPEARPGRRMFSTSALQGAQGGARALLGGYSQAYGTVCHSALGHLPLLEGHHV

[19] = test system: MET (human), P08581 [Y1235D]
[20] = molecular target: MKNK2 (human) (UniProt Q9HBH9)
[21] = molecular target: NLK (human) (UniProt Q9UBE8)
[22] = molecular target: PAK3 (human) (UniProt O75914)
[23] = molecular target: PAK6 (human) (UniProt Q9NQU5)
[24] = molecular target: PDGFRB (human) (UniProt P09619)
[25] = molecular target: PHKG1 (human) (UniProt Q16816)
Sequence of PHKG1 (human) (Q16816 whole entry, looked up): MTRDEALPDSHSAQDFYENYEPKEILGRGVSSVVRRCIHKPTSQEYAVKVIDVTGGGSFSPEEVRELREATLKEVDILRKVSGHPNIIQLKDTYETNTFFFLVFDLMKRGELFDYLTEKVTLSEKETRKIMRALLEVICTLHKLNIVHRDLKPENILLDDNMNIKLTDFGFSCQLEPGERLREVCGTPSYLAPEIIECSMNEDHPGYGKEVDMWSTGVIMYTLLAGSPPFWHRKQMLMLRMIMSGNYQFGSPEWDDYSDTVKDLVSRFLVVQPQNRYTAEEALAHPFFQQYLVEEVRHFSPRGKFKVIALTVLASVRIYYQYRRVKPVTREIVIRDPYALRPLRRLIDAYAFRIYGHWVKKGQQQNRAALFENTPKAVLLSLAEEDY

[26] = molecular target: PIP5K1A (human) (UniProt Q99755)
[27] = molecular target: PRKCE (human) (UniProt Q02156)
Sequence of PRKCE (human) (Q02156 whole entry, looked up): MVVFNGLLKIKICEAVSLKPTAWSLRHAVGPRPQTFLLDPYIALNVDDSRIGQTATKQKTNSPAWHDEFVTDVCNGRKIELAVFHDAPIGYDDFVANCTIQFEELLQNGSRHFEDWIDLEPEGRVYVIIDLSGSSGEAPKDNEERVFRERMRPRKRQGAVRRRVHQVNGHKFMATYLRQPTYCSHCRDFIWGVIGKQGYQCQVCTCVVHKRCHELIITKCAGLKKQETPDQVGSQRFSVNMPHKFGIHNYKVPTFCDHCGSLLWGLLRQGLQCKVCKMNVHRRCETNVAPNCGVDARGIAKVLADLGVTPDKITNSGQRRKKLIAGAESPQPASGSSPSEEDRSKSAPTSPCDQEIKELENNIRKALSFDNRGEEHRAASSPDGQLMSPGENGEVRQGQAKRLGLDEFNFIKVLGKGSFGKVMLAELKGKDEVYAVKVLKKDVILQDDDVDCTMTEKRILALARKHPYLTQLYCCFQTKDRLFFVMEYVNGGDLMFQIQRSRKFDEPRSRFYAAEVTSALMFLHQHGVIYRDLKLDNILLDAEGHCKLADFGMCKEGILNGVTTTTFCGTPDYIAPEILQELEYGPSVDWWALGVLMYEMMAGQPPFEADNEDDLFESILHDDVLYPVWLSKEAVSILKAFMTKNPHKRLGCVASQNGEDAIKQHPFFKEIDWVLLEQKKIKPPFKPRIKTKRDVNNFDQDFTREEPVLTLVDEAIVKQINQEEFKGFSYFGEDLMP

[28] = molecular target: PRKD3 (human) (UniProt O94806)
[29] = molecular target: RIOK1 (human) (UniProt Q9BRS2)
[30] = molecular target: SBK1 (human) (UniProt Q52WX2)
[31] = molecular target: SIK1 (human) (UniProt P57059)
[32] = molecular target: SIK3 (human) (UniProt Q9Y2K2)
[33] = molecular target: SRPK3 (human) (UniProt Q9UPE1)
[34] = molecular target: TTK (human) (UniProt P33981)
[35] = molecular target: TYK2 JH2 pseudokinase (human) (UniProt P29597)
[36] = molecular target: VRK2 (human) (UniProt Q86Y07)
[37] = molecular target: YSK4 (human) (UniProt Q56UN5)
[38] = test system: EGFR (human), P00533 [752-759 del]
[39] = molecular target: PTK2 (human) (UniProt Q05397)
[40] = molecular target: RPS6KA2 KD2 (human) (UniProt Q15349)

Sequence of AKT3 (human) (Q9Y243 whole entry, looked up): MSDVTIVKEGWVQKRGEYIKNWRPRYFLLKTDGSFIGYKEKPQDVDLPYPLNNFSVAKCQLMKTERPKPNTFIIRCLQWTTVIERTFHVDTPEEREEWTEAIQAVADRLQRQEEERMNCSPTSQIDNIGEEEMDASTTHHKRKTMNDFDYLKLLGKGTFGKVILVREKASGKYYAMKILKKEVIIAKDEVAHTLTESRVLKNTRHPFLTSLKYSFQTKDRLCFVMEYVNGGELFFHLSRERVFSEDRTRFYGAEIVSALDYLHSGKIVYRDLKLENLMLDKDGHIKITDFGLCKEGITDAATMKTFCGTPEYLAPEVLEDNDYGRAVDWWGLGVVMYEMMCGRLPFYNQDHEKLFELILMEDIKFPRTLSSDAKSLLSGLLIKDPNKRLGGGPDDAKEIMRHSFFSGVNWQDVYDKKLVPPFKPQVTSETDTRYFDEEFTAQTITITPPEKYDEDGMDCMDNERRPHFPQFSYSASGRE
Sequence of AKT1 (human) (P31749 whole entry, looked up): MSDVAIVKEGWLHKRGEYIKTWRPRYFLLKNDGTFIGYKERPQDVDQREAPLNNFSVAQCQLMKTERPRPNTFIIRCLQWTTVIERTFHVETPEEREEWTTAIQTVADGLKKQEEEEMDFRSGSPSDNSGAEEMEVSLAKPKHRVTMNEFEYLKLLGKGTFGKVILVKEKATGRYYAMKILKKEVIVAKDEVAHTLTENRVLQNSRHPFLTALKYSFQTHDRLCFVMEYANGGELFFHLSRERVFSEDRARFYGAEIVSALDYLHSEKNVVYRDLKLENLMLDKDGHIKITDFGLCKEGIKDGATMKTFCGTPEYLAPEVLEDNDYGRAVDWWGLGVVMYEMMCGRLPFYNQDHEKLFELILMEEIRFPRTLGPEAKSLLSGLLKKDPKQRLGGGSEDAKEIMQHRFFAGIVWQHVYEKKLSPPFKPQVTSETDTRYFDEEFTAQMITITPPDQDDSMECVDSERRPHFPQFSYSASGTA
Sequence of CDC42BPG (human) (Q6DT37 whole entry, looked up): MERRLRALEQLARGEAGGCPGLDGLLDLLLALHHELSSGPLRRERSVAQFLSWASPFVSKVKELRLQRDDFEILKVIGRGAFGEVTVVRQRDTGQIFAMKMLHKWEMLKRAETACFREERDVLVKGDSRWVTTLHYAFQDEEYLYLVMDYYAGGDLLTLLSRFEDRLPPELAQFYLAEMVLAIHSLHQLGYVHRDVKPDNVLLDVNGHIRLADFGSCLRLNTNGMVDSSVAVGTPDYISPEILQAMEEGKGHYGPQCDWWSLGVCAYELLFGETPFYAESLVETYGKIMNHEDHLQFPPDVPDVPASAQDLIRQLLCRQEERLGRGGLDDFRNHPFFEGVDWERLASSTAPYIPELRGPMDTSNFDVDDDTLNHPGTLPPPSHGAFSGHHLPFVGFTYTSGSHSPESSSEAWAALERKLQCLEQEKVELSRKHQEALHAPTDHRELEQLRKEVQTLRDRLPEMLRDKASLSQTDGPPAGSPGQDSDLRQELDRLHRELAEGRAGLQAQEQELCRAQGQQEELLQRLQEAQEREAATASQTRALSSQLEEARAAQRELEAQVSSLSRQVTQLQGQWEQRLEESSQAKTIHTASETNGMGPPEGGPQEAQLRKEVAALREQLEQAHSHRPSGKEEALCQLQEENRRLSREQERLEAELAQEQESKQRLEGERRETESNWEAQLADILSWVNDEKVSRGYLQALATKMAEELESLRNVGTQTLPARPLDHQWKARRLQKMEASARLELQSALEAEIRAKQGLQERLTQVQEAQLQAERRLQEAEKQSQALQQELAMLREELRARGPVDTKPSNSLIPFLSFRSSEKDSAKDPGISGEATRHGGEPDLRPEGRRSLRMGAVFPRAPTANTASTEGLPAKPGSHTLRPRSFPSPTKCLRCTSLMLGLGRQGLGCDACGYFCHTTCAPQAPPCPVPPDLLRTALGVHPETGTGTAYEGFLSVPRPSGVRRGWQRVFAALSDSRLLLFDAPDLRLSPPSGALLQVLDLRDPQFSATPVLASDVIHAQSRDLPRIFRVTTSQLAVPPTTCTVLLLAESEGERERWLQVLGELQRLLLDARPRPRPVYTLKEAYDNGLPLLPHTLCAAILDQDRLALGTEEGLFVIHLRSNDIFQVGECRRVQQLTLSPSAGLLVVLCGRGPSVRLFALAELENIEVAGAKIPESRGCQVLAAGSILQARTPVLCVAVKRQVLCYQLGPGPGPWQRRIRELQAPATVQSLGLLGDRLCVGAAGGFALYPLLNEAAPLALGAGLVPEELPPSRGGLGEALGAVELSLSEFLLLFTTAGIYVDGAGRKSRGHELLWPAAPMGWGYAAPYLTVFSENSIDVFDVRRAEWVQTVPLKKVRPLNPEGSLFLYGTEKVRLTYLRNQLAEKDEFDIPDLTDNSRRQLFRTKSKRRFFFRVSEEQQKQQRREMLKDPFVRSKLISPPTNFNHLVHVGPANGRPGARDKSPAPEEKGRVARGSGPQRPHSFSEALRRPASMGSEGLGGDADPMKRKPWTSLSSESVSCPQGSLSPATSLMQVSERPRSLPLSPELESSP

SMILES	kinase still bound, per cent of control [1] [%]	kinase still bound, per cent of control [2] [%]	kinase still bound, per cent of control [3] [%]	kinase still bound, per cent of control [4] [%]	kinase still bound, per cent of control [5] [%]	kinase still bound, per cent of control [6] [%]	kinase still bound, per cent of control [7] [%]	kinase still bound, per cent of control [8] [%]	kinase still bound, per cent of control [9] [%]	kinase still bound, per cent of control [10] [%]	kinase still bound, per cent of control [11] [%]	kinase still bound, per cent of control [12] [%]	kinase still bound, per cent of control [13] [%]	kinase still bound, per cent of control [14] [%]	kinase still bound, per cent of control [15] [%]	kinase still bound, per cent of control [16] [%]	kinase still bound, per cent of control [17] [%]	kinase still bound, per cent of control [18] [%]	kinase still bound, per cent of control [19] [%]	kinase still bound, per cent of control [20] [%]	also measured
COCC(=O)NC/C=C/c1ccc2ncnc(Nc3ccc(Oc4ccc(C)nc4)c(C)c3)c2c1	100	100	100	90	100	100	100	92	98	100	92	11	100	95	80	100	68	100	81	1.4	kinase still bound, per cent of control [21]: 100%; kinase still bound, per cent of control [22]: 70%; kinase still bound, per cent of control [23]: 89%; kinase still bound, per cent of control [24]: 46%; kinase still bound, per cent of control [25]: 100%; kinase still bound, per cent of control [26]: 88%; kinase still bound, per cent of control [27]: 100%; kinase still bound, per cent of control [28]: 83%; kinase still bound, per cent of control [29]: 91%; kinase still bound, per cent of control [30]: 100%; kinase still bound, per cent of control [31]: 100%; kinase still bound, per cent of control [32]: 76%; kinase still bound, per cent of control [33]: 100%; kinase still bound, per cent of control [34]: 80%; kinase still bound, per cent of control [35]: 24%; kinase still bound, per cent of control [36]: 100%; kinase still bound, per cent of control [37]: 100%
O=c1cc(N2CCOCC2)oc2c(-c3cccc4c3sc3ccccc34)cccc12	89	98	94	100	95	100	100	85	82	100	95	97	91	100	76	95	100	100	59	87	kinase still bound, per cent of control [38]: 100%; kinase still bound, per cent of control [21]: 88%; kinase still bound, per cent of control [22]: 100%; kinase still bound, per cent of control [23]: 94%; kinase still bound, per cent of control [24]: 76%; kinase still bound, per cent of control [25]: 100%; kinase still bound, per cent of control [26]: 100%; kinase still bound, per cent of control [27]: 100%; kinase still bound, per cent of control [28]: 100%; kinase still bound, per cent of control [39]: 70%; kinase still bound, per cent of control [29]: 100%; kinase still bound, per cent of control [40]: 83%; kinase still bound, per cent of control [30]: 100%; kinase still bound, per cent of control [31]: 100%; kinase still bound, per cent of control [32]: 92%; kinase still bound, per cent of control [33]: 100%; kinase still bound, per cent of control [34]: 100%; kinase still bound, per cent of control [35]: 100%; kinase still bound, per cent of control [36]: 100%; kinase still bound, per cent of control [37]: 100%
